Results on three substances are retold here after US20160310584A1, “FORMULATIONS FOR NEOPLASIA VACCINES” (THE BROAD INSTITUTE INC., priority 2013, published 2016).

Holding throughout (type): physicochemical
Series [1] can be described thus: Peptide solubility evaluation: dissolution in DMSO, dilution in D5W with or without succinate. To be noted: DMSO/D5W; Table 4; Y/N; diluted to 2 mg/ml; read-out: Solubility In DMSO/D5W. The protocol:
(§1) In a representative procedure, peptides were weighed and corrected for % peptide content, and then dissolved in DMSO to a concentration of 50 mg/mL. The DMSO/Peptide solution was then diluted with 5 mM sodium succinate in D5W to a 2 mg/mL peptide concentration.
Additional peptide solubility conditions were tested. Peptides CS6709, CS6712, CS6720, CS6726, and CS6783 were weighed at approximately 10 mg each. The peptides were then dissolved in approximately 200 μL USP grade DMSO to obtain a 50 mg/mL concentration for each peptide. […] Additional 50 μL increments of DMSO were added to Peptide CS6709 up to 400 μL; for a total of 600 μL of DMSO.
Based on gross weight and peptide content, 15 mg (net weight) or slightly more of each individual peptide are weighed and 100% USP Grade DMSO […] is added to achieve a final peptide concentration of 50 mg/ml.

Series [2] is described as follows: Peptide diluent matrix (precipitation on dilution of DMSO dissolved peptides). The settings on record: 5 peptides in one vial diluted to 400 μg/mL. The protocol: Additional peptide solubility conditions were tested. Peptides CS6709, CS6712, CS6720, CS6726, and CS6783 were weighed at approximately 10 mg each. The peptides were then dissolved in approximately 200 μL USP grade DMSO to obtain a 50 mg/mL concentration for each peptide. […] The sample appeared to be cloudy. […] The volume of CS6709 added to the single vial was 120 μL. […] Upon addition of the PBS pH 7.4, it was observed that one or more of the peptides had precipitated out. To determine which of the peptides precipitated, Applicants followed the matrix in Table 5 below using very small amounts (10-20 μL) of the DMSO dissolved peptides and adding these peptides to the various liquids.

A short description of the next series: pH of peptide solutions. The protocol: as §1
Series [3] in a line: Freeze/thaw and frozen storage stability (RP-HPLC, pH, visual inspection). The settings on record: −20° C. stability study. Here is the method:
Two individual peptides were dissolved in DMSO/D5W and placed on stability at two temperatures (−20° C. and −80° C.). These peptides were evaluated (RP-HPLC and pH and visual inspection) for up to 24 weeks. […] Any small changes appear to be due to assay variability as no trends were noted to be evaluated.
A peptide pool (Pool 4) consisting of five peptides was prepared by dissolution in DMSO, dilution with D5W/Succinate (5 mM) to 2 mg/ml and pooling to a final peptide concentration of 400 μg per ml and a final DMSO concentration of 4%. After preparation, peptides were filtered with a 25 mm Pall PES filter (Cat #4612) and dispensed into Nunc Cryo vials (#375418) in one ml aliquots. Samples were analyzed at time zero and at 2 and 4 weeks to date. Additional samples are analyzed at 8 and 24 weeks.

Turning to “H-LLTDRNTSGTTFTLLGVSDYPELQVPLFLVFLA-OH [CS6783]”, the solubility in series [1] was under 2000 µg/mL. Besides, the “Precipitation when PBS pH 7.4 was added as diluent to the peptide mixture” value in series [2] is recorded as “precipitate”.
Turning to “H-KLAWRGRISSSGCPSMTSPPSPMFGMTLHT-OH [CS6919]”, in the series “pH of peptide solutions”, the “pH of peptides in DMSO/D5W/5 mM S. Succinate spike” value stood at 6.74; the “pH of peptides in DMSO/D5W/5 mM Succinate and Hiltonol” value is reported as 6.99. In addition, the “Heterodimer formation (mass spectrometry)” value in series [3] was “can form a heterodimer”.
Taken in the same sequence, the figures for “H-SKRGVGAKTLLLPDPFLFWPCLEGTRRSL-OH [CS6934]” were 6.57, 6.79 and “can form a heterodimer”.
